Entries after “also recorded” stand apart in the source; their conditions may differ.
Legend:
[1] = system: Chromobacterium violaceum (CV026); experiment: Quorum sensing inhibition test with bio-reporter CV026 (TLC overlay); type: cell-based; details: for Degree of QSI of CV026: Table 1, coumaperine derivatives, 40 mM in ~20 μL acetonitrile dried on TLC plate, overnight, color intensity; for QSI activity against CV026, in words: running text; for Degree of quorum sensing inhibition (QSI), CV026: Table 2, piperlongumine derivatives; for Degree of QSI of CV026: key: −: no inhibition; +: low inhibition; ++: medium inhibition; +++: strong inhibition; for Degree of quorum sensing inhibition (QSI), CV026: key: −: no inhibition; +: low inhibition; ++: medium inhibition; +++: strong inhibition
Description: (§1) TLC preparation: all derivatives were dissolved in 100% acetonitrile to a concentration of 40 mM. Then placed 20 μlon the same spot on the TLC and let the solvent evaporate before use. CV026: few colonies were transferred to liquid LB (Lenox) for overnight incubation at 30° C. in a 45 degree in orbital shaker. At the O.D. 0.8 3 ml of the starter was added to preheated soft LB agar containing 500 nM of 3-oxo-C6 (Sigma-Aldrich). The mixture was then loaded on the TLC in a glass plate for O.N. incubation in 30° C. The next day inhibition zone was measured, while QS is taking place bacteria produce purple pigment, and when QS is inhibited no pigment is produced. KYC55 (pJZ372) (pJZ384) (pJZ410): 20 μl from the frozen stock into 25 ml AT media (AT buffer×20: 1.57 M KH2PO4 pH=7.3. AT salts mix×20: 300 mM (NH4)2SO4, 13 mM MgSO4, 1.4 mM CaCl2, 0.4 mM FeSO4·7H2O, 0.26 mM MnSO4·H2O. AT media: 50 ml×20 AT-buffer, 50 ml×20 AT-salts, 10 ml 50% (w/v) glucose, add 890 ml to final volume of 1 liter.) For O.N. at 30° C. in an orbital shaker. Into preheated water agar with 25 ml AT-buffer, and 60 μg/ml X-gal and 5 nM 3-oxo-c8 (both from Sigma-Aldrich) 25 ml of the starter was added. Then, that mixture was loaded on the TLC in glass plate for O.N. incubation in 30° C. The next day the inhibition zone was measured. The bacteria produce blue pigment during QS and when QS is inhibited no pigment is produced. KYC55 (pJZ372) (pJZ384) (pJZ410) preservation in tetracycline (1 μg/ml), spectinomycin (100 μg/ml), gentamicin (100 μg/ml) (all antibiotics from Sigma Aldrich) in AT media O.N. then centrifuged and suspend in 15% glycerol frozen and maintained at −80° C.

[2] = system: Agrobacterium tumefaciens (KYC55); experiment: Quorum sensing inhibition test with bio-reporter KYC55 (TLC overlay); type: cell-based; details: for Degree of QSI of KYC55: Table 1, coumaperine derivatives, 40 mM in ~20 μL acetonitrile dried on TLC plate, overnight, color intensity; for QSI activity against KYC55, in words: running text; for Degree of quorum sensing inhibition (QSI), KYC55: Table 2, piperlongumine derivatives; for Degree of QSI of KYC55: key: −: no inhibition; +: low inhibition; ++: medium inhibition; +++: strong inhibition; for Degree of quorum sensing inhibition (QSI), KYC55: key: −: no inhibition; +: low inhibition; ++: medium inhibition; +++: strong inhibition
Description: as §1

[3] = system: quorum sensing (CV026 and KYC55); experiment: Quorum sensing inhibition, overall statement over the bio-reporter bacteria; type: cell-based; details: for QSI: Table 6 summary; for QSI activity overall, in words: running text
Description: as §1
All the synthesized compounds were evaluated for quorum sensing inhibition against two bioreporter bacteria strains, Chromobacterium violaceum (CV026) and Agrobacterium tumefaciens (KYC55) and the results are summarized in Table 1.

[4] = system: gram-positive and gram-negative bacteria; experiment: Antibacterial activity, overall statement (diffusion discs test); type: cell-based; details: for Antibacterial: Table 6 summary; for Antibacterial activity, in words: running text
Description: All derivatives were dissolved in acetonitrile to a final concentration of 40 mM. Twenty (20) μl were loaded onto Whatman filter paper discs and dried. Bacillus subtilis, Staphylococcus aureus, and Acinetobacter baumannii were grown in LB (Lenox) O.N. One hundred (100) μl from the starter culture was plated on LB agar (Miller) dishes. Streptococcus sobrinus, and Streptococcus mutans grown in Brain Heary Infusion (BHI, Himedia) O.N. were similarly plated on BHI agar dishes. Discs were laid and incubated O.N. in 37° C. and the diameter of inhibition of bacterial growth was measured.
The antibacterial activities of derivatives showing QSI are outlined in Table 4. […] Similar to that idea, synthetic derivatives of furanon (product of marine algae) shown in-vivo QSI activity without antibacterial activity followed by immune response of the infected animal. Phenolic compounds decrease QS and virulence in PA01 and Chromobacterium violaceum. There is increasing number of studies, searching for compounds that targeting non-vital processes to combat bacteria.

NF-kB = experiment: NF-kB-luciferase reporter gene assay in L428 cells; type: cell-based, human; details: Table 6 summary; note: key: +: active; −: inactive
Description: FIG. 7 includes a vertical bar graph showing a dose response of NF-kB activation according to an NF-kB reporter gene luciferase assay. L428 cells were stably transfected with the NF-kB luciferase reporter gene. The cells were incubated with the compounds at different concentrations for 2 hours. […] The results represent the percentage of NF-kB activation as compared to vehicle (DMSO) treated cells. All samples were normalized to protein concentration. Mean+SD, Two-way ANOVA and Tukey's multiple comparison test. 95% confidence interval (p-values *≤0.0332, **≤0.0021, ***≤0.0002).
L428 cells stable transfectants with the luciferase NF-kB-Luc reporter gene were generated previously described (Ozer et al., 2009), and were maintained in 500 μg/ml of G418 (G418 disulfate salt, Sigma-Aldrich). The cells (5×10^5 /well in triplicate) were incubated for 2 hrs. in 1 ml of medium containing the solvent (DMSO) or different concentrations of the molecules tested. Cells were then harvested, lysed, and monitored by a luciferase reporter assay kit (Promega) according to the manufacturer's instructions. Measurements were carried out using a luminometer (Promega, GLOMAX™ 20/20 Luminometer). Data were normalized to the protein concentration in each lysate as measured by the Bradford method (BioRad) and normalized to the control. Experiments were repeated at least three times.

L428 cells = experiment: in vitro
Description: (§2) The human Hodgkin's Lymphoma derived L428 cell line was used as a model. The cells were grown in RPMI Medium 1640 with 10% FBS, 1% Glutamine and pen-strep (all from Biological Industries, Israel). […] Thirty thousand (30,000) cells/well were placed in 96-well plates with the coumaperine derivatives at different concentrations or with vehicle (DMSO) at a final volume of 200 μl. The plates were incubated for 48 hrs. at 37° C. and 5% CO2 followed by the addition of 50 μl of the XTT reagent tetrazolium-formazan, (Biological Industries, Israel) was added for 2 hrs. at 37° C., 5% CO2. In living cells, mitochondria […] the tetrazolium-formazan salt, thereby generating a color absorbing product at 450 nm. Absorbance was measured at 450 nm and 650 nm in an enzyme-linked immunosorbent assay (ELISA) plate reader (Multiskan Spectrum, Version 1.2), and recorded. Absorption values at 650 nm were subtracted from the blank and the 450 nm values. The results were normalized to the control (treated with DMSO).
(§3) Viability was determined in triplicate in two independent tests. The results were normalized to vehicle (DMSO) treated cells, (100% viability). Mean+SD.

in vitro = details: human, LC50
Description: as §2, §3

| Compound | Degree of QSI of CV026 [1] | QSI activity against CV026, in words [1] | Degree of QSI of KYC55 [2] | QSI activity against KYC55, in words [2] | QSI activity overall, in words [3] | LC50 (L428 cells) | further results |
| --- | --- | --- | --- | --- | --- | --- | --- |
| O=C(/C=C/c1ccc([N+](=O)[O-])cc1)N1CCCCC1 [CP-286] | + | low | ++ | moderate | anti QS activity | Non-toxic | QSI [3]: +; Antibacterial [4]: −; Antibacterial activity, in words [4]: did not show antibiotic activity; Anti-inflammatory (NF-kB): +; Cytotoxic (L428 cells): − |
| O=C(/C=C/c1ccc(F)cc1)N1CCCCC1 [CP-273] | + | low activity | − | inactive | low QSI | Non-toxic |  |
| O=C(/C=C/c1ccc2c(c1)OCO2)N1CCCCC1 [CP-270, (E)-3-(benzo)-1-(piperidin-1-yl)prop-2-en-1-one] | +++ | highly QSI active | +++ | highly QSI active |  | Non-toxic | Antibacterial activity, in words [4]: did not; Cytotoxic activity, in words (L428 cells): no cytotoxic activity |
| COc1ccc(/C=C/C(=O)N2CCCCC2)cc1 [CP-282] | +++ | more effective against CV026 than KYC55 | ++ |  |  | Non-toxic | Cytotoxic activity, in words (L428 cells): no cytotoxic activity |
| COc1cc(/C=C/C(=O)N2CCC=CC2=O)cc(OC)c1OC [PL, Piperlongumine, reference compound] |  | inactive |  | inactive | inactive |  | Degree of quorum sensing inhibition (QSI), CV026 [1]: −; Degree of quorum sensing inhibition (QSI), KYC55 [2]: − |
| COc1cc(/C=C/C(=O)NCc2ccccc2)cc(OC)c1OC [PL-20, (E)-N-benzyl-3-(3,4,5-trimethoxyphenyl)acrylamide] |  | moderate activity |  | inactive |  | Non-toxic | Degree of quorum sensing inhibition (QSI), CV026 [1]: ++; Degree of quorum sensing inhibition (QSI), KYC55 [2]: − |
| COc1cc(/C=C/C=C/C(=O)N2CCCCC2)ccc1O [CP-205] | ++ | moderate activity; also recorded: moderately active | ++ | moderate activity; also recorded: moderately active |  | Non-toxic | QSI [3]: +; Antibacterial [4]: −; Anti-inflammatory (NF-kB): +; Cytotoxic (L428 cells): −; Cytotoxic activity, in words (L428 cells): no cytotoxic activity |
| COc1ccc(/C=C/C=C/C(=O)N2CCCCC2)cc1 [CP-38, (2E,4E)-5-(4-methoxyphenyl)-1-(piperidin-1-yl)penta-2,4-dien-1-one] | ++ | moderate | + | low |  |  | CC50 at 48 h (in vitro): 47.4 µM |
| O=C(/C=C/c1ccc2c(c1)OCO2)N1CCCCC1 [CP-215, (E)-3-(benzo[d][1,3]dioxol-5-yl)-1-(piperidin-1-yl)prop-2-en-1-one] |  | highly active |  | highly active | active; also recorded: strong | Non-toxic | QSI [3]: +; QSI activity overall, in words ([3]; listed as CP215): anti QS activity; Antibacterial [4]: −; Antibacterial activity, in words [4]: did not show antibiotic activity; Anti-inflammatory (NF-kB): +; Cytotoxic (L428 cells): − |
| Piperine [reference compound] | − | inactive | − | inactive | do not inhibit |  |  |
| COc1ccc(/C=C/C(=O)N2CCCCC2)cc1OC [CP-289] | + |  | +++ | more effective against KYC55 than CV026 |  | Non-toxic | Cytotoxic activity, in words (L428 cells): no cytotoxic activity |
| O=C(/C=C/C=C/C=C/c1ccc2c(c1)OCO2)N1CCCCC1 [CP-155, (2E,4E,6E)-7-(benzo[d][1,3]dioxol-5-yl)-1-(piperidin-1-yl)hepta-2,4,6-trien-1-one] | − | inactive | − | inactive | do not inhibit |  |  |
| COc1cc(/C=C/C(=O)NCC(=O)O)cc(OC)c1OC |  |  |  |  |  |  | Degree of quorum sensing inhibition (QSI), CV026 [1]: −; Degree of quorum sensing inhibition (QSI), KYC55 [2]: + |
| CN(C)c1ccc(/C=C/C=C/C(=O)N2CCCCC2)cc1 [CP-32, (2E,4E)-5-(4-(dimethylamino)phenyl)-1-(piperidin-1-yl)penta-2,4-dien-1-one] |  | low activity |  | inactivity |  |  |  |
| COc1cc(/C=C/C(=O)N2CCCCC2=O)cc(OC)c1OC [PL-31] |  | low activity |  | inactive |  |  | Degree of quorum sensing inhibition (QSI), CV026 [1]: +; Degree of quorum sensing inhibition (QSI), KYC55 [2]: − |
| COc1cc(/C=C/C(=O)N2CCCCC2)ccc1O [CP-293] | − | inactive | − | inactive |  |  |  |
| COc1cc(/C=C/C(=O)NCCCCC(=O)O)cc(OC)c1OC |  |  |  |  |  |  | Degree of quorum sensing inhibition (QSI), CV026 [1]: −; Degree of quorum sensing inhibition (QSI), KYC55 [2]: − |
| O=C(/C=C/C=C/C=C/c1ccc(O)c(O)c1)N1CCCCC1 [CP-239A, (2E,4E,6E)-7-(3,4-dihydroxyphenyl)-1-(piperidin-1-yl)hepta-2,4,6-trien-1-one] | − | inactive | − | inactive |  |  |  |

Source: US20240109855A1, “ANTI-QUORUM SENSING, ANTI-BIOFILM, AND INFLAMMATION ATTENUATING COMPOUNDS, COMPOSITIONS, AND METHODS OF USING SAME” (priority 2021, published 2024)
